Results on 3 compounds are retold here after ChEMBL document CHEMBL1150709, “Irisones A and B: two new isoflavones from Iris missouriensis” (1987).

Molecules are shown by their SMILES.

The experiment relates to P388. In words: Cytotoxicity against mouse P388 cells. Type of experiment: functional. The settings on record: read-out: ED50 (the source's name).
On to `O=c1c(-c2ccccc2O)coc2cc3c(c(O)c12)OCO3` [IRISONE B], for which the EC50 was more than 50 µg/mL.

As for `COc1ccccc1-c1coc2cc(O)c(OC)c(O)c2c1=O`, the EC50 is more than 50 µg/mL.

On to `COc1ccccc1-c1coc2cc3c(c(O)c2c1=O)OCO3` [IRISONE A], for which the EC50 was more than 50 µg/mL.
